Results on one compound are retold here after ChEMBL document CHEMBL4304811, “Development of a Water-Soluble Indolylmaleimide Derivative IM-93 Showing Dual Inhibition of Ferroptosis and NETosis” (ACS Med Chem Lett, 2019).

Assay [1] addresses MAP/microtubule affinity-regulating kinase 4 (Homo sapiens) (UniProt Q96L34). The assay can be described thus: Binding affinity to wild-type human partial length MARK4 (K29 to G340 residues) expressed in bacterial expression system assessed as residual binding level at 10 uM by Kinomescan method relative to control.
The target in assay [2] is Interleukin-1 receptor-associated kinase 3 (Homo sapiens) (UniProt Q9Y616). Put plainly: Binding affinity to wild-type human partial length IRAK3 (V147 to E596 residues) expressed in bacterial expression system assessed as residual binding level at 10 uM by Kinomescan method relative to control.
Assay [3] concerns the target Serine/threonine-protein kinase BRSK1 (Homo sapiens) (UniProt Q8TDC3). The assay can be described thus: Binding affinity to wild-type human partial length BRSK1 (M1 to E754 residues) expressed in bacterial expression system assessed as residual binding level at 10 uM by Kinomescan method relative to control.
Assay [4] concerns Hepatocyte growth factor receptor (Homo sapiens), P08581 [Y1235D]. Put plainly: Binding affinity to human partial length MET Y1235D mutant (D1010 to S1367 residues) expressed in bacterial expression system assessed as residual binding level at 10 uM by Kinomescan method relative to control.
Assay [5] concerns the target Platelet-derived growth factor receptor alpha (Homo sapiens) (UniProt P16234). The assay can be described thus: Binding affinity to wild-type human partial length PDGFRA (V575 to D1002 residues) expressed in mammalian expression system assessed as residual binding level at 10 uM by Kinomescan method relative to control.
Assay [6] deals with Ephrin type-A receptor 5 (Homo sapiens) (UniProt P54756). The assay can be described thus: Binding affinity to wild-type human partial length EPHA5 (T627 to V930 residues) expressed in bacterial expression system assessed as residual binding level at 10 uM by Kinomescan method relative to control.
For assay [7], the target named is MAP/microtubule affinity-regulating kinase 3 (Homo sapiens) (UniProt P27448). Put plainly: Binding affinity to wild-type human full length MARK3 (M1 to L729 residues) expressed in bacterial expression system assessed as residual binding level at 10 uM by Kinomescan method relative to control.
For assay [8], the target named is STE20-like serine/threonine-protein kinase (Homo sapiens) (UniProt Q9H2G2). The assay can be described thus: Binding affinity to wild-type human partial length SLK (S14 to A307 residues) expressed in bacterial expression system assessed as residual binding level at 10 uM by Kinomescan method relative to control.
Assay [9] concerns the target Tyrosine-protein kinase ZAP-70 (Homo sapiens) (UniProt P43403). Put plainly: Binding affinity to wild-type human partial length ZAP70 (D20 to G299 residues) expressed in mammalian expression system assessed as residual binding level at 10 uM by Kinomescan method relative to control.
Assay [10] addresses Dual specificity tyrosine-phosphorylation-regulated kinase 2 (Homo sapiens) (UniProt Q92630). Put plainly: Binding affinity to wild-type human full length DYRK2 (M1 to S528 residues) expressed in mammalian expression system assessed as residual binding level at 10 uM by Kinomescan method relative to control.
Assay [11] deals with Membrane-associated tyrosine- and threonine-specific cdc2-inhibitory kinase (Homo sapiens) (UniProt Q99640). The assay can be described thus: Binding affinity to wild-type human partial length PKMYT1 (A88 to G366 residues) expressed in bacterial expression system assessed as residual binding level at 10 uM by Kinomescan method relative to control.
In assay [12] the target is Casein kinase II subunit alpha' (Homo sapiens) (UniProt P19784). Put plainly: Binding affinity to wild-type human full length CSNK2A2 (M1 to R350 residues) expressed in mammalian expression system assessed as residual binding level at 10 uM by Kinomescan method relative to control.
The target in assay [13] is Phosphatidylinositol 3-kinase C2 domain-containing subunit gamma (Homo sapiens) (UniProt O75747). The assay can be described thus: Binding affinity to wild-type human partial length PIK3C2G (M1 to I1446 residues) expressed in mammalian expression system assessed as residual binding level at 10 uM by Kinomescan method relative to control.
For assay [14], the target named is Serine/threonine-protein kinase haspin (Homo sapiens) (UniProt Q8TF76). Put plainly: Binding affinity to wild-type human partial length HASPIN (I452 to K798 residues) expressed in mammalian expression system assessed as residual binding level at 10 uM by Kinomescan method relative to control.
The target in assay [15] is NUAK family SNF1-like kinase 2 (Homo sapiens) (UniProt Q9H093). The assay can be described thus: Binding affinity to wild-type human partial length SNARK (P22 to A333 residues) expressed in mammalian expression system assessed as residual binding level at 10 uM by Kinomescan method relative to control.
Assay [16] has as its target Fibroblast growth factor receptor 3 (Homo sapiens) (UniProt P22607). Put plainly: Binding affinity to wild-type human partial length FGFR3 (R442 to S771 residues) expressed in bacterial expression system assessed as residual binding level at 10 uM by Kinomescan method relative to control.
The target in assay [17] is Serine/threonine-protein kinase Nek5 (Homo sapiens) (UniProt Q6P3R8). Put plainly: Binding affinity to wild-type human partial length NEK5 (M1 to M279 residues) expressed in bacterial expression system assessed as residual binding level at 10 uM by Kinomescan method relative to control.
Assay [18] addresses Activin receptor type-1-like (Homo sapiens) (UniProt P37023). The assay can be described thus: Binding affinity to wild-type human ACVRL1 (L164 to Q503 residues) expressed in bacterial expression system assessed as residual binding level at 10 uM by Kinomescan method relative to control.
Assay [19] has as its target Phosphatidylinositol 4,5-bisphosphate 3-kinase catalytic subunit beta isoform (Homo sapiens) (UniProt P42338). Put plainly: Binding affinity to wild-type human partial length PIK3CB (P118 to S1070 residues) expressed in mammalian expression system assessed as residual binding level at 10 uM by Kinomescan method relative to control.
For assay [20], the target named is Calcium/calmodulin-dependent protein kinase type II subunit alpha (Homo sapiens) (UniProt Q9UQM7). The assay can be described thus: Binding affinity to wild-type human partial length CAMK2A (M1 to K328 residues) expressed in bacterial expression system assessed as residual binding level at 10 uM by Kinomescan method relative to control.
In assay [21] the target is Calcium/calmodulin-dependent protein kinase kinase 2 (Homo sapiens) (UniProt Q96RR4). Put plainly: Binding affinity to wild-type human partial length CAMKK2 (D65 to V471 residues) expressed in bacterial expression system assessed as residual binding level at 10 uM by Kinomescan method relative to control.
For assay [22], the target named is Mitogen-activated protein kinase 11 (Homo sapiens) (UniProt Q15759). Put plainly: Binding affinity to wild-type human full length p38-beta (M1 to Q364 residues) expressed in bacterial expression system assessed as residual binding level at 10 uM by Kinomescan method relative to control.
Assay [23] has as its target Casein kinase I isoform alpha (Homo sapiens) (UniProt P48729). The assay can be described thus: Binding affinity to wild-type human partial length CSNK1A1 (M1 to L450 residues) expressed in mammalian expression system assessed as residual binding level at 10 uM by Kinomescan method relative to control.
For assay [24], the target named is Ribosomal protein S6 kinase alpha-2 (Homo sapiens) (UniProt Q15349). The assay can be described thus: Binding affinity to wild-type human partial length C-terminal RSK3 kinase domain 2 (V403 to K700 residues) expressed in bacterial expression system assessed as residual binding level at 10 uM by Kinomescan method relative to control.

With `CC(C)N1C(=O)C(NCCCN(C)C)=C(c2cn(C)c3ccccc23)C1=O.Cl`, the Activity in assay [1] was 64%; in [2], 85%; in assay [3] it was 85%; in assay [4] it was 99%; in [5], 86%; in assay [6] it was 96%. Moreover, the Activity in assay [7] was found to be 78%; in assay [8] it was 78%; in [9], 100%; in assay [10] it was 87%; in [11], 88%; in assay [12], 78%. In addition, the Activity in assay [13] amounted to 84%; in assay [14] it was 100%; in [15], 79%; in [16], 100%; in [17], 100%; in assay [18], 100%. Besides, the Activity is 89% in assay [19]; 100% in assay [20]; 69% in [21]; 96% in assay [22]; 88% in assay [23]; 100% in assay [24].
